Measured values reported in ChEMBL document CHEMBL5236613, “Exploration of 1,2,3-triazole linked benzenesulfonamide derivatives as isoform selective inhibitors of human carbonic anhydrase” (Bioorg Med Chem, 2023).
Each block holds one compound with its values, some of them ahead of it.

Experiments:
A549 = assay: cells; conditions: Homo sapiens, A549, 24 h
Description: Antiproliferative activity against human A549 cells assessed as inhibition of cell growth incubated for 24 hrs by MTT assay

Carbonic anhydrase 9 = Carbonic anhydrase 9 (Homo sapiens, UniProt Q16790); assay: Inhibition of human transmembrane carbonic anhydrase 9 using 4-nitrophenyl acetate as substrate assessed as inhibition constant by spectrophotometric analysis

SMILES: Cc1cccc(C)c1N1C(=O)c2ccc(C(=O)OCc3cn(-c4ccc(S(N)(=O)=O)cc4)nn3)cc2C1=O
IC50 (A549): 253 µM | Ki (Carbonic anhydrase 9): 0.0245 µM

SMILES: CCCCN1C(=O)c2ccc(C(=O)OCc3cn(-c4ccc(S(N)(=O)=O)cc4)nn3)cc2C1=O
IC50 (A549): 199 µM | Ki (Carbonic anhydrase 9): 0.035 µM

SMILES: CCCCCCN1C(=O)c2ccc(C(=O)OCc3cn(-c4ccc(S(N)(=O)=O)cc4)nn3)cc2C1=O
IC50 (A549): 161 µM | Ki (Carbonic anhydrase 9): 0.0752 µM

SMILES: COc1cccc2c1C(=O)c1c(O)c3c(c(O)c1C2=O)C[C@@](O)(C(=O)CO)C[C@@H]3O[C@H]1C[C@H](N)[C@H](O)[C@H](C)O1 [DOXORUBICIN]
IC50 (A549): 10.8 µM

SMILES: NS(=O)(=O)c1ccc(-n2cc(COC(=O)c3ccc4c(c3)C(=O)N(c3cccc5ccccc35)C4=O)nn2)cc1
IC50 (A549): 278 µM | Ki (Carbonic anhydrase 9): 0.0253 µM

SMILES: NS(=O)(=O)c1ccc(-n2cc(COC(=O)c3ccc4c(c3)C(=O)N(Cc3ccc5c(c3)OCO5)C4=O)nn2)cc1
IC50 (A549): 130 µM | Ki (Carbonic anhydrase 9): 0.0239 µM

SMILES: CCCCCCCCN1C(=O)c2ccc(C(=O)OCc3cn(-c4ccc(S(N)(=O)=O)cc4)nn3)cc2C1=O
IC50 (A549): 235 µM | Ki (Carbonic anhydrase 9): 0.05 µM

The next lines start with the values.

IC50 (A549): 300 µM | Ki (Carbonic anhydrase 9): 0.0183 µM
SMILES: NS(=O)(=O)c1ccc(-n2cc(COC(=O)c3ccc4c(c3)C(=O)N(c3ccccc3)C4=O)nn2)cc1

IC50 (A549): 258 µM | Ki (Carbonic anhydrase 9): 0.0353 µM
SMILES: NS(=O)(=O)c1ccc(-n2cc(COC(=O)c3ccc4c(c3)C(=O)N(c3ccccc3I)C4=O)nn2)cc1

IC50 (A549): 352 µM | Ki (Carbonic anhydrase 9): 0.0489 µM
SMILES: NS(=O)(=O)c1ccc(-n2cc(COC(=O)c3ccc4c(c3)C(=O)N(c3ccc(Cl)cc3)C4=O)nn2)cc1

IC50 (A549): 290 µM | Ki (Carbonic anhydrase 9): 0.0186 µM
SMILES: NS(=O)(=O)c1ccc(-n2cc(COC(=O)c3ccc4c(c3)C(=O)N(c3ccccc3Cl)C4=O)nn2)cc1

IC50 (A549): 231 µM | Ki (Carbonic anhydrase 9): 0.0229 µM
SMILES: NS(=O)(=O)c1ccc(-n2cc(COC(=O)c3ccc4c(c3)C(=O)N(c3cccc(F)c3)C4=O)nn2)cc1

IC50 (A549): 266 µM | Ki (Carbonic anhydrase 9): 0.0286 µM
SMILES: N#Cc1ccc(N2C(=O)c3ccc(C(=O)OCc4cn(-c5ccc(S(N)(=O)=O)cc5)nn4)cc3C2=O)cc1
